Data: patent US20250108038A1 (priority 2023, published 2025)
“And” between values parts separate entries of the source, which are not always exact repeats. Equal entries are not always repeated. Structures can show the parent of a compound that is named as a salt.

Tested on: Long Evans rats
Experiment: Behavioral satiety sequence (BSS)
Assay type: in vivo, Long Evans rat
Text: The Behavioural Satiety Sequence (BSS) is a technique used to evaluate physiological satiety. It is based on the expression of a sequence of behaviors including eating, grooming, locomotor activity, followed by resting, which are typically observed in rodents post-ingestion (Halford et al, 1998, Pharmacology Biochemistry and Behaviour. 61(2): 159-168). The BSS is a widely used model for determining the effects of novel pharmaceuticals on food intake and measures of satiety in rodents (Oliveira et al, 2011, Revista de Nutrição. 24(4) 619-628), and to discriminate the cause of reduced food intake following pharmacological manipulation. For example, treatments that may reduce food intake by non-specific mechanisms, such as immobility, malaise, and taste adulteration, will disrupt this sequence (Halford et al, 1998, Pharmacology Biochemistry and Behaviour. 61(2): 159-168).
Specifically, 12 male Long-Evans rats were food-deprived for 22 h with a 2 h feeding period each day. Rats were trained to consume daily food during the 2 h period over 25 days. The testing phase was initiated once the rats consistently consumed 16-18 g of food per day with ≤10% variance in amount of feed consumed. Feeding took place in designated individual boxes in a quiet room separate from the housing room. Continuous remote monitoring via video camera during feeding was used to assess the BSS. Food consumption was measured by weighing the total available food before and after the 2 h feeding window, correcting for spillage. Lorcaserin (1 mg/kg) was included as a reference control (Higgins et al, 2011, Neuropsychopharmacology. 37(5): 1177-1191). Subjects were tested using a repeated-measures, Latin square design with 2-3 days wash-out between treatment cycles.
On scheduled test days, animals were monitored remotely via video camera during the feeding access period. The occurrence of four mutually exclusive behaviors (eating/drinking, grooming, active, rest) were individually scored. Over the 2 h feeding period, behaviors were assessed every 30 seconds. Scores were compiled into 23 5 min timebins (timebin 24 was removed due to early removal of animals) and the frequency of each behavior within each timebin was calculated to determine a temporal frequency of each measure (Rodgers et al, 2010, Pharmacology Biochemistry and Behaviour. 97: 3-14). Percentage time was plotted for each behavioral sequence in each timebin to compare between treatment groups (Higgins et al, 2011, Neuropsychopharmacology. 37(5): 1177-1191).

[1] = 1 mg/kg, AVG of animals LT-1 to LT-12
[2] = 1 mg/kg, raw score per animal LT-1 to LT-12, hydrochloride
[3] = Lorcaserin 1 mg/kg s.c., AVG of the group
[4] = Lorcaserin 1 mg/kg s.c., raw score per animal, hydrochloride

C[C@H]1CNCCc2ccc(Cl)cc21 [lorcaserin, Lorcaserin hydrochloride, reference compound]
BSS scoring A (active), Time Bin 13 (60-65 TOTAL), AVG [1]: 0.20
BSS scoring A (active), Time Bin 14 (65-70 TOTAL), AVG [1]: 0.20
BSS scoring A (active), Time Bin 15 (70-75 TOTAL), AVG [1]: 0.12
BSS scoring A (active), Time Bin 16 (75-80 TOTAL), AVG [1]: 0.06
BSS scoring A (active), Time Bin 17 (80-85 TOTAL), AVG [1]: 0.07
BSS scoring A (active), Time Bin 18 (85-90 TOTAL), AVG [1]: 0.13
BSS scoring E (eating/drinking), Time Bin 13 (60-65 TOTAL), AVG [1]: 0.66
BSS scoring E (eating/drinking), Time Bin 14 (65-70 TOTAL), AVG [1]: 0.65
BSS scoring E (eating/drinking), Time Bin 15 (70-75 TOTAL), AVG [1]: 0.70
BSS scoring E (eating/drinking), Time Bin 16 (75-80 TOTAL), AVG [1]: 0.83
BSS scoring E (eating/drinking), Time Bin 17 (80-85 TOTAL), AVG [1]: 0.84
BSS scoring E (eating/drinking), Time Bin 18 (85-90 TOTAL), AVG [1]: 0.73
BSS scoring G (grooming), Time Bin 13 (60-65 TOTAL), AVG [1]: 0.07
BSS scoring G (grooming), Time Bin 14 (65-70 TOTAL), AVG [1]: 0.04
BSS scoring G (grooming), Time Bin 15 (70-75 TOTAL), AVG [1]: 0.12
BSS scoring G (grooming), Time Bin 16 (75-80 TOTAL), AVG [1]: 0.08
BSS scoring G (grooming), Time Bin 17 (80-85 TOTAL), AVG [1]: 0.04
BSS scoring G (grooming), Time Bin 18 (85-90 TOTAL), AVG [1]: 0.10
BSS scoring R (resting), Time Bin 13 (60-65 TOTAL), AVG [1]: 0.08
BSS scoring R (resting), Time Bin 14 (65-70 TOTAL), AVG [1]: 0.11
BSS scoring R (resting), Time Bin 15 (70-75 TOTAL), AVG [1]: 0.07
BSS scoring R (resting), Time Bin 16 (75-80 TOTAL), AVG [1]: 0.03
BSS scoring R (resting), Time Bin 17 (80-85 TOTAL), AVG [1]: 0.05
BSS scoring R (resting), Time Bin 18 (85-90 TOTAL), AVG [1]: 0.03
BSS scoring A (active), Time Bin 13 (60-65 TOTAL) [2]: 6 and 5 and 2 (2×) and 1 (2×) and 0 (4×) and 4 and 3
BSS scoring A (active), Time Bin 14 (65-70 TOTAL) [2]: 4 (3×) and 2 (4×) and 0 and 1 (4×)
BSS scoring A (active), Time Bin 15 (70-75 TOTAL) [2]: 0 (5×) and 1 (4×) and 4 (2×) and 2
BSS scoring A (active), Time Bin 16 (75-80 TOTAL) [2]: 0 (9×) and 2 and 1 and 4
BSS scoring A (active), Time Bin 17 (80-85 TOTAL) [2]: 0 (8×) and 2 (4×)
BSS scoring A (active), Time Bin 18 (85-90 TOTAL) [2]: 4 and 0 (5×) and 1 (4×) and 6 and 2
BSS scoring E (eating/drinking), Time Bin 13 (60-65 TOTAL) [2]: 4 and 3 and 6 and 5 (2×) and 7 (2×) and 8 (3×) and 9 (2×)
BSS scoring E (eating/drinking), Time Bin 14 (65-70 TOTAL) [2]: 6 (2×) and 5 and 7 and 10 and 4 (2×) and 8 (3×) and 3 and 9
BSS scoring E (eating/drinking), Time Bin 15 (70-75 TOTAL) [2]: 6 (3×) and 9 (4×) and 2 and 10 and 3 and 8 and 7
BSS scoring E (eating/drinking), Time Bin 16 (75-80 TOTAL) [2]: 10 (7×) and 1 and 9 (2×) and 5 and 6
BSS scoring E (eating/drinking), Time Bin 17 (80-85 TOTAL) [2]: 8 (3×) and 9 (3×) and 10 (3×) and 7 (2×) and 6
BSS scoring E (eating/drinking), Time Bin 18 (85-90 TOTAL) [2]: 4 and 9 (2×) and 6 (2×) and 10 (3×) and 7 (3×) and 3
BSS scoring G (grooming), Time Bin 13 (60-65 TOTAL) [2]: 0 (8×) and 2 (2×) and 3 and 1
BSS scoring G (grooming), Time Bin 14 (65-70 TOTAL) [2]: 0 (8×) and 1 (3×) and 2
BSS scoring G (grooming), Time Bin 15 (70-75 TOTAL) [2]: 0 (6×) and 3 and 1 (4×) and 7
BSS scoring G (grooming), Time Bin 16 (75-80 TOTAL) [2]: 0 (10×) and 6 and 3
BSS scoring G (grooming), Time Bin 17 (80-85 TOTAL) [2]: 0 (8×) and 1 (3×) and 2
BSS scoring G (grooming), Time Bin 18 (85-90 TOTAL) [2]: 2 (3×) and 1 (3×) and 0 (5×) and 3
BSS scoring R (resting), Time Bin 13 (60-65 TOTAL) [2]: 0 (7×) and 2 and 4 and 1 (3×)
BSS scoring R (resting), Time Bin 14 (65-70 TOTAL) [2]: 0 (7×) and 1 (2×) and 4 (2×) and 3
BSS scoring R (resting), Time Bin 15 (70-75 TOTAL) [2]: 4 and 1 (2×) and 0 (8×) and 2
BSS scoring R (resting), Time Bin 16 (75-80 TOTAL) [2]: 0 (9×) and 1 (2×) and 2
BSS scoring R (resting), Time Bin 17 (80-85 TOTAL) [2]: 2 (2×) and 1 (2×) and 0 (8×)
BSS scoring R (resting), Time Bin 18 (85-90 TOTAL) [2]: 0 (9×) and 2 and 1 (2×)
effect on the behavioral satiety sequence (BSS) (Compound I-19 0.1-3 mg/kg IP, lorcaserin 1 mg/kg SC): preserved the BSS at the 1 mg/kg dose
BSS scoring A (active), Time Bin 7 (30-35 TOTAL), AVG [3]: 0.18
BSS scoring A (active), Time Bin 8 (35-40 TOTAL), AVG [3]: 0.21
BSS scoring A (active), Time Bin 9 (40-45 TOTAL), AVG [3]: 0.10
BSS scoring A (active), Time Bin 10 (45-50 TOTAL), AVG [3]: 0.16
BSS scoring A (active), Time Bin 11 (50-55 TOTAL), AVG [3]: 0.09
BSS scoring A (active), Time Bin 12 (55-60 TOTAL), AVG [3]: 0.10
BSS scoring E (eating/drinking), Time Bin 7 (30-35 TOTAL), AVG [3]: 0.68
BSS scoring E (eating/drinking), Time Bin 8 (35-40 TOTAL), AVG [3]: 0.68
BSS scoring E (eating/drinking), Time Bin 9 (40-45 TOTAL), AVG [3]: 0.74
BSS scoring E (eating/drinking), Time Bin 10 (45-50 TOTAL), AVG [3]: 0.78
BSS scoring E (eating/drinking), Time Bin 11 (50-55 TOTAL), AVG [3]: 0.75
BSS scoring E (eating/drinking), Time Bin 12 (55-60 TOTAL), AVG [3]: 0.83
BSS scoring G (grooming), Time Bin 7 (30-35 TOTAL), AVG [3]: 0.12
BSS scoring G (grooming), Time Bin 8 (35-40 TOTAL), AVG [3]: 0.09
BSS scoring G (grooming), Time Bin 9 (40-45 TOTAL), AVG [3]: 0.12
BSS scoring G (grooming), Time Bin 10 (45-50 TOTAL), AVG [3]: 0.01
BSS scoring G (grooming), Time Bin 11 (50-55 TOTAL), AVG [3]: 0.04
BSS scoring G (grooming), Time Bin 12 (55-60 TOTAL), AVG [3]: 0.05
BSS scoring R (resting), Time Bin 7 (30-35 TOTAL), AVG [3]: 0.03
BSS scoring R (resting), Time Bin 8 (35-40 TOTAL), AVG [3]: 0.03
BSS scoring R (resting), Time Bin 9 (40-45 TOTAL), AVG [3]: 0.04
BSS scoring R (resting), Time Bin 10 (45-50 TOTAL), AVG [3]: 0.06
BSS scoring R (resting), Time Bin 11 (50-55 TOTAL), AVG [3]: 0.12
BSS scoring R (resting), Time Bin 12 (55-60 TOTAL), AVG [3]: 0.02
BSS scoring A (active), Time Bin 7 (30-35 TOTAL) [4]: 0 (4×) and 3 and 1 (3×) and 4 and 2 (2×) and 7
BSS scoring A (active), Time Bin 8 (35-40 TOTAL) [4]: 4 (2×) and 2 (2×) and 1 (4×) and 3 (3×) and 0
BSS scoring A (active), Time Bin 9 (40-45 TOTAL) [4]: 0 (7×) and 2 and 1 (3×) and 7
BSS scoring A (active), Time Bin 10 (45-50 TOTAL) [4]: 2 (2×) and 4 and 0 (7×) and 10 and 1
BSS scoring A (active), Time Bin 11 (50-55 TOTAL) [4]: 0 (6×) and 2 (2×) and 1 (3×) and 4
BSS scoring A (active), Time Bin 12 (55-60 TOTAL) [4]: 2 (2×) and 0 (6×) and 1 (3×) and 5
BSS scoring E (eating/drinking), Time Bin 7 (30-35 TOTAL) [4]: 6 (4×) and 7 (2×) and 8 (2×) and 5 and 3 and 10 (2×)
BSS scoring E (eating/drinking), Time Bin 8 (35-40 TOTAL) [4]: 5 (3×) and 7 and 9 and 8 (3×) and 4 and 6 (2×) and 10
BSS scoring E (eating/drinking), Time Bin 9 (40-45 TOTAL) [4]: 10 (2×) and 7 (2×) and 9 (2×) and 8 (3×) and 2 and 6 and 5
BSS scoring E (eating/drinking), Time Bin 10 (45-50 TOTAL) [4]: 8 (2×) and 6 (2×) and 10 (4×) and 0 and 9 (2×) and 7
BSS scoring E (eating/drinking), Time Bin 11 (50-55 TOTAL) [4]: 10 (3×) and 7 (3×) and 1 and 8 (4×) and 6
BSS scoring E (eating/drinking), Time Bin 12 (55-60 TOTAL) [4]: 6 and 7 (2×) and 9 (5×) and 10 (3×) and 5
BSS scoring G (grooming), Time Bin 7 (30-35 TOTAL) [4]: 3 and 1 (3×) and 2 (4×) and 0 (4×)
BSS scoring G (grooming), Time Bin 8 (35-40 TOTAL) [4]: 1 (7×) and 0 (3×) and 2 (2×)
BSS scoring G (grooming), Time Bin 9 (40-45 TOTAL) [4]: 0 (4×) and 1 (5×) and 2 and 3 and 4
BSS scoring G (grooming), Time Bin 10 (45-50 TOTAL) [4]: 0 (11×) and 1
BSS scoring G (grooming), Time Bin 11 (50-55 TOTAL) [4]: 0 (7×) and 1 (5×)
BSS scoring G (grooming), Time Bin 12 (55-60 TOTAL) [4]: 2 (2×) and 0 (8×) and 1 (2×)
BSS scoring R (resting), Time Bin 7 (30-35 TOTAL) [4]: 1 (3×) and 0 (9×)
BSS scoring R (resting), Time Bin 8 (35-40 TOTAL) [4]: 0 (9×) and 1 (3×)
BSS scoring R (resting), Time Bin 9 (40-45 TOTAL) [4]: 0 (9×) and 1 (2×) and 3
BSS scoring R (resting), Time Bin 10 (45-50 TOTAL) [4]: 0 (8×) and 4 and 1 (3×)
BSS scoring R (resting), Time Bin 11 (50-55 TOTAL) [4]: 0 (7×) and 2 (3×) and 7 and 1
